Source: patent US20100298141A1, “SUBSTITUTED PYRIDINE N-OXIDE HERBICIDES” (E. I. DU PONT DE NEMOURS AND COMPANY, priority 2007, published 2010)

Legend:
soybean = test: Test C pre-/postemergence test; type: in vivo, Glycine max; conditions: for Plant response rating (0 to 100), Soybean: 250 g ai/ha
Summary of the method: (§1)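 Test chemicals were formulated with surfactant in a non-phytotoxic solvent and sprayed both on freshly planted seeds (preemergence) and on 1- to 4-leaf plants of 2–18 cm (postemergence). Flooded-paddy pots received compound directly into 3 cm of standing water, maintained for the test.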

cocklebur = test: Test C pre-/postemergence test; type: in vivo, Xanthium strumarium; conditions: for Plant response rating (0 to 100), Cocklebur: 250 g ai/ha
Summary of the method: as §1

woolly cupgrass = test: Test C pre-/postemergence test; type: in vivo, Eriochloa villosa; conditions: for Plant response rating (0 to 100), Cupgrass, Woolly: 250 g ai/ha
Summary of the method: as §1

wild oat = test: Test C pre-/postemergence test; type: in vivo, Avena fatua; conditions: for Plant response rating (0 to 100), Oat, Wild: 250 g ai/ha
Summary of the method: as §1

green foxtail = test: Test C pre-/postemergence test; type: in vivo, Setaria viridis; conditions: for Plant response rating (0 to 100), Foxtail, Green: 250 g ai/ha
Summary of the method: as §1

catchweed bedstraw = test: Test C pre-/postemergence test; type: in vivo, Galium aparine; conditions: for Plant response rating (0 to 100), Galium: 250 g ai/ha
Summary of the method: as §1

morningglory = test: Test C pre-/postemergence test; type: in vivo, Ipomoea coccinea; conditions: for Plant response rating (0 to 100), Morningglory: 250 g ai/ha
Summary of the method: as §1

giant foxtail = test: Test C pre-/postemergence test; type: in vivo, Setaria faberii; conditions: for Plant response rating (0 to 100), Foxtail, Giant: 250 g ai/ha
Summary of the method: as §1

downy brome = test: Test C pre-/postemergence test; type: in vivo, Bromus tectorum; conditions: for Plant response rating (0 to 100), Bromegrass, Downy: 250 g ai/ha
Summary of the method: as §1

velvetleaf [1] = test: Test C pre-/postemergence test; type: in vivo, Abutilon theophrasti; conditions: for Velvetleaf plant response rating: preemergence, scale 0 (no effect) to 100 (complete control); for Plant response rating (0 to 100), Velvetleaf: Preemergence, 250 g ai/ha
Summary of the method: as §1

johnsongrass = test: Test C pre-/postemergence test; type: in vivo, Sorghum halepense; conditions: for Plant response rating (0 to 100), Johnsongrass: 250 g ai/ha
Summary of the method: as §1

corn = test: Test C pre-/postemergence test; type: in vivo, Zea mays; conditions: for Plant response rating (0 to 100), Corn: 250 g ai/ha
Summary of the method: as §1

velvetleaf [2] = test: Test A pre-/postemergence greenhouse test; type: in vivo, Abutilon theophrasti; conditions: for Velvetleaf plant response rating: 0 to 100 scale; for Plant response rating, Velvetleaf: 0 to 100 scale where 0 is no effect and 100 is complete control
Summary of the method: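 Pots of loam–sand soil sown with the test species are sprayed preemergence on the soil surface; emerged seedlings (1–2 leaves, 2–10 cm) are sprayed postemergence at the same time. The vehicle is a non-phytotoxic solvent mixture with surfactant. Injury is scored visually after ~10 d in greenhouse.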

blackgrass = test: Test C pre-/postemergence test; type: in vivo, Alopecurus myosuroides
Summary of the method: as §1

duck salad = test: Test C flooded paddy test; type: in vivo, Heteranthera limosa; conditions: Flood
Summary of the method: (§2)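 Compound was added to standing water 3 cm above soil, flood maintained, and plants held in a greenhouse before visual scoring against controls at 13 to 15 days.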

barnyardgrass = test: Test C flooded paddy test; type: in vivo, Echinochloa crus-galli; conditions: Flood
Summary of the method: as §2

Italian ryegrass = test: Test C pre-/postemergence test; type: in vivo, Lolium multiflorum; conditions: for Plant response rating (0 to 100), Ryegrass, Italian: 250 g ai/ha
Summary of the method: as §1

[3] = 31 g ai/ha, Preemergence, scale 0 to 100
[4] = 62 g ai/ha, preemergence, scale 0 (no effect) to 100 (complete control)
[5] = preemergence, 125 g ai/ha, scale 0 (no effect) to 100 (complete control)
[6] = Postemergence, 125 g ai/ha, 0 is no effect, 100 is complete control
[7] = Postemergence, 500 g ai/ha, 0 is no effect, 100 is complete control
[8] = Preemergence, 125 g ai/ha, 0 no effect, 100 complete control
[9] = 31 g ai/ha, scale 0 to 100 (0 no effect, 100 complete control)
[10] = 62 g ai/ha, scale 0 to 100, 0 no effect, 100 complete control, 13 to 15 days
[11] = 125 g ai/ha, scale 0 to 100, 0 no effect, 100 complete control, 13 to 15 days
[12] = 250 g ai/ha, scale 0 to 100 (0 no effect, 100 complete control)

## Cn1nc(C(F)(F)F)c(C[S+]([O-])c2ccc(Br)c[n+]2[O-])c1OC(F)F (racemic) [Compound 16]
soybean; [3]
  Soybean plant response rating: 0
soybean; [4]
  Soybean plant response rating: 30
soybean; Preemergence
  Plant response rating (0 to 100), Soybean: 80
soybean; [5]
  Soybean plant response rating: 60
cocklebur; [3]
  Cocklebur plant response rating: 0
cocklebur; [4]
  Cocklebur plant response rating: 0
cocklebur; Preemergence
  Plant response rating (0 to 100), Cocklebur: 0
cocklebur; [5]
  Cocklebur plant response rating: 0
Woolly cupgrass; [3]
  Cupgrass, Woolly plant response rating: 20
Woolly cupgrass; [4]
  Cupgrass, Woolly plant response rating: 80
Woolly cupgrass; Preemergence
  Plant response rating (0 to 100), Cupgrass, Woolly: 100
Woolly cupgrass; [5]
  Cupgrass, Woolly plant response rating: 95
Wild oat; [3]
  Oat, Wild plant response rating: 0
Wild oat; [4]
  Oat, Wild plant response rating: 70
Wild oat; Preemergence
  Plant response rating (0 to 100), Oat, Wild: 80
Wild oat; [5]
  Oat, Wild plant response rating: 75
Green foxtail; [3]
  Foxtail, Green plant response rating: 70
Green foxtail; [4]
  Foxtail, Green plant response rating: 70
Green foxtail; Preemergence
  Plant response rating (0 to 100), Foxtail, Green: 100
Green foxtail; [5]
  Foxtail, Green plant response rating: 70
Catchweed bedstraw; [3]
  Galium plant response rating: 0
Catchweed bedstraw; [4]
  Galium plant response rating: 100
Catchweed bedstraw; Preemergence
  Plant response rating (0 to 100), Galium: 100
Catchweed bedstraw; [5]
  Galium plant response rating: 100
morningglory; [3]
  Morningglory plant response rating: 0
morningglory; [4]
  Morningglory plant response rating: 10
morningglory; Preemergence
  Plant response rating (0 to 100), Morningglory: 100
morningglory; [5]
  Morningglory plant response rating: 95
Giant foxtail; [3]
  Foxtail, Giant plant response rating: 80
Giant foxtail; [4]
  Foxtail, Giant plant response rating: 100
Giant foxtail; Preemergence
  Plant response rating (0 to 100), Foxtail, Giant: 100
Downy brome; [3]
  Bromegrass, Downy plant response rating: 20
Downy brome; [4]
  Bromegrass, Downy plant response rating: 50
Downy brome; Preemergence
  Plant response rating (0 to 100), Bromegrass, Downy: 60
Downy brome; [5]
  Bromegrass, Downy plant response rating: 55
Velvetleaf [1]; 62 g ai/ha
  Velvetleaf plant response rating: 100
Velvetleaf [1]
  Plant response rating (0 to 100), Velvetleaf: 100
Velvetleaf [1]; 125 g ai/ha
  Velvetleaf plant response rating: 100
johnsongrass; [3]
  Johnsongrass plant response rating: 100
johnsongrass; [4]
  Johnsongrass plant response rating: 100
johnsongrass; Preemergence
  Plant response rating (0 to 100), Johnsongrass: 100
johnsongrass; [5]
  Johnsongrass plant response rating: 100
corn; [3]
  Corn plant response rating: 40
corn; [4]
  Corn plant response rating: 95
corn; Preemergence
  Plant response rating (0 to 100), Corn: 100
corn; [5]
  Corn plant response rating: 98
Velvetleaf [2]; [6]
  Velvetleaf plant response rating: 50
Velvetleaf [2]; [7]
  Velvetleaf plant response rating: 90
Velvetleaf [2]; [8]
  Velvetleaf plant response rating: 80
Velvetleaf [2]; Preemergence, 500 g ai/ha
  Plant response rating, Velvetleaf: 100
blackgrass; [3]
  Blackgrass plant response rating: 0
blackgrass; [4]
  Blackgrass plant response rating: 50
blackgrass; [5]
  Blackgrass plant response rating: 50
Duck salad; [9]
  Plant response rating, Ducksalad: 0
Duck salad; [10]
  Plant response rating, Ducksalad: 0
Duck salad; [11]
  Plant response rating, Ducksalad: 0
Duck salad; [12]
  Plant response rating, Ducksalad: 0
barnyardgrass; [9]
  Plant response rating, Barnyardgrass: 0
barnyardgrass; [10]
  Plant response rating, Barnyardgrass: 0
barnyardgrass; [11]
  Plant response rating, Barnyardgrass: 0
barnyardgrass; [12]
  Plant response rating, Barnyardgrass: 0
Italian ryegrass; [3]
  Ryegrass, Italian plant response rating: 30
Italian ryegrass; [4]
  Ryegrass, Italian plant response rating: 50
Italian ryegrass; Preemergence
  Plant response rating (0 to 100), Ryegrass, Italian: 100
Italian ryegrass; [5]
  Ryegrass, Italian plant response rating: 55

## Cn1nc(C(F)(F)F)c(CS(=O)(=O)c2cccc[n+]2[O-])c1Cl [Compound 9]
soybean; [3]
  Soybean plant response rating: 10
soybean; Preemergence
  Plant response rating (0 to 100), Soybean: 45
soybean; [5]
  Soybean plant response rating: 40
cocklebur; [3]
  Cocklebur plant response rating: 0
cocklebur; Preemergence
  Plant response rating (0 to 100), Cocklebur: 0
cocklebur; [5]
  Cocklebur plant response rating: 0
Woolly cupgrass; [3]
  Cupgrass, Woolly plant response rating: 0
Woolly cupgrass; Preemergence
  Plant response rating (0 to 100), Cupgrass, Woolly: 100
Woolly cupgrass; [5]
  Cupgrass, Woolly plant response rating: 100
Wild oat; [3]
  Oat, Wild plant response rating: 0
Wild oat; [4]
  Oat, Wild plant response rating: 0
Wild oat; Preemergence
  Plant response rating (0 to 100), Oat, Wild: 55
Wild oat; [5]
  Oat, Wild plant response rating: 40
Green foxtail; [3]
  Foxtail, Green plant response rating: 85
Green foxtail; [4]
  Foxtail, Green plant response rating: 100
Green foxtail; Preemergence
  Plant response rating (0 to 100), Foxtail, Green: 100
Green foxtail; [5]
  Foxtail, Green plant response rating: 100
Catchweed bedstraw; [3]
  Galium plant response rating: 0
Catchweed bedstraw; [4]
  Galium plant response rating: 100
Catchweed bedstraw; Preemergence
  Plant response rating (0 to 100), Galium: 100
Catchweed bedstraw; [5]
  Galium plant response rating: 100
morningglory; [3]
  Morningglory plant response rating: 0
morningglory; Preemergence
  Plant response rating (0 to 100), Morningglory: 100
morningglory; [5]
  Morningglory plant response rating: 90
Giant foxtail; [3]
  Foxtail, Giant plant response rating: 85
Giant foxtail; Preemergence
  Plant response rating (0 to 100), Foxtail, Giant: 100
Giant foxtail; [5]
  Foxtail, Giant plant response rating: 100
Downy brome; [3]
  Bromegrass, Downy plant response rating: 0
Downy brome; [4]
  Bromegrass, Downy plant response rating: 0
Downy brome; Preemergence
  Plant response rating (0 to 100), Bromegrass, Downy: 20
Downy brome; [5]
  Bromegrass, Downy plant response rating: 20
Velvetleaf [1]
  Plant response rating (0 to 100), Velvetleaf: 40
Velvetleaf [1]; 125 g ai/ha
  Velvetleaf plant response rating: 0
johnsongrass; [3]
  Johnsongrass plant response rating: 45
johnsongrass; Preemergence
  Plant response rating (0 to 100), Johnsongrass: 100
johnsongrass; [5]
  Johnsongrass plant response rating: 100
corn; [3]
  Corn plant response rating: 20
corn; Preemergence
  Plant response rating (0 to 100), Corn: 98
corn; [5]
  Corn plant response rating: 98
Velvetleaf [2]; [6]
  Velvetleaf plant response rating: 0
Velvetleaf [2]; [7]
  Velvetleaf plant response rating: 30
Velvetleaf [2]; [8]
  Velvetleaf plant response rating: 50
Velvetleaf [2]; Preemergence, 500 g ai/ha
  Plant response rating, Velvetleaf: 60
blackgrass; [3]
  Blackgrass plant response rating: 0
blackgrass; [4]
  Blackgrass plant response rating: 50
blackgrass; Preemergence, 250 g ai/ha
  Plant response rating (0 to 100), Blackgrass: 95
blackgrass; [5]
  Blackgrass plant response rating: 50
Duck salad; [9]
  Plant response rating, Ducksalad: 0
Duck salad; [10]
  Plant response rating, Ducksalad: 65
Duck salad; [11]
  Plant response rating, Ducksalad: 85
Duck salad; [12]
  Plant response rating, Ducksalad: 90
barnyardgrass; [9]
  Plant response rating, Barnyardgrass: 0
barnyardgrass; [10]
  Plant response rating, Barnyardgrass: 60
barnyardgrass; [11]
  Plant response rating, Barnyardgrass: 85
barnyardgrass; [12]
  Plant response rating, Barnyardgrass: 90
Italian ryegrass; [3]
  Ryegrass, Italian plant response rating: 0
Italian ryegrass; [4]
  Ryegrass, Italian plant response rating: 50
Italian ryegrass; Preemergence
  Plant response rating (0 to 100), Ryegrass, Italian: 65
Italian ryegrass; [5]
  Ryegrass, Italian plant response rating: 65
